Measured values: patent US10420803B2, “Differentiation of pluripotent stem cells to intestinal midgut endoderm cells” (Janssen Biotech, Inc., priority 2016, dated 2019)

Legend:
Format in all cases: cell-based, human
[1] = test system: H1-hESC-derived S3D5 cells; assay: Gene expression by qPCR (Taqman Arrays) in S3D5 cells
Protocol: (§1) Differentiation: The cultures were differentiated using the following protocol. During Stages 1 through 3 of the protocol, cultures were maintained on planar adherent cultures. […] The following nomenclature, S#D#, specifies exact time during Stages 1 through 3. For example, S1D3 is stage 1 day 3. Briefly, each stage defines differentiation towards definitive endoderm (stage 1), primitive gut tube (stage 2), and intestinal midgut endoderm (stage 3). • a. Stage 1 (3 days): Cells were cultured for one day in the following Stage 1 media:
For quantification of gene expression at various stages, Caco-2, H1-hESC, S1D3, S2D2, S3D2 and S3D5 cells were harvested, as described in Nature Biotechnology, 2014 (32) 11, 1121-1133. Briefly, gene expression was assessed in cells using custom Taqman® Arrays (Applied Biosystems, Foster City, Calif.); Open Array® (OA) was used for CDX2, FOXA2, SOX2, SOX9, PDX1, ALB, PTF1A, and Taqman® Low Density Array (TLDA) was used for KLF5, HOXC5, and LGR5, with housekeeping gene GAPDH used for both tests. Data were analyzed using Sequence Detection Software (Applied Biosystems, Foster City, Calif.), and normalized using GAPDH as a housekeeping gene to undifferentiated H1-hESC using the ΔΔCt method. Primer details are outlined in Table IV.

[2] = test system: H1-hESC-derived S3D5 cells; assay: FACS quantification of protein co-presence in S3D5 cells
Protocol: as §1
Quantification of differentiated cells: For quantification of protein presence co-localization, S3D5 cells were harvested and analyzed by FACS. FACS staining was conducted as described in Nature Biotechnology, 2014 (32) 11, 1121-1133, incorporated herein by reference in its entirety, and using the antibodies listed in Table II. In brief, differentiated cells were incubated in TrypLE™ Express (Life Technologies, Carlsbad, Calif., Catalog No. 12604) for 5-10 minutes at 37° C., released into a single-cell suspension, after which they were washed twice with a staining buffer of PBS containing 0.2% BSA (BD Biosciences, San Jose, Calif., Catalog No. 554657). Intracellular antibody staining was accomplished by utilizing the LIVE/DEAD Violet Fluorescent reactive dye (Life Technologies, Carlsbad, Calif., Catalog No. L34955) at 4° C. for 30 minutes followed by a single wash in cold PBS. Fixing of cells was in 300 μl of Cytofix/Cytoperm Buffer (BD Biosciences, San Jose, Calif., Catalog No. 554723) followed by two washes in Perm/Wash Buffer (BD Biosciences, San Jose, Calif., Catalog No. 554722). Cells were then incubated with the appropriate antibodies at 4° C. for 30 minutes (for unconjugated antibodies) or 1 hour (for conjugated antibodies), and then washed twice prior to analysis on the BD FACS Canto II using BD FACS Diva Software with at least 30,000 events being acquired. Non-viable cells were excluded during FACS analysis, and gating was determined by using isotype antibodies (“IgG”). IgG FACS data is shown as the top panel for each FACS experiment presented. Antibodies were tested for specificity using positive controls, such as Caco-2 cells, or negative controls, such as S1D3 definitive endoderm (“DE”) cells.

[3] = test system: H1-hESC-derived S3D5 cells; assay: Cell number characterization using the Nucleocounter NC-100
Protocol: A summary of a differentiation method, including the important medium components, growth factors and small molecules that were added to each stage, and key stage-specific markers of the differentiating intestinal midgut endoderm cells (FOXA2; CDX2; KLF5; SOX9; PDX1^LO) is depicted in FIG. 1A. As compared to the neutral pH noted for S2D2 (7.35±0.04), cells were exposed to slightly acidic conditions in the BLAR medium, during the entirety of stage 3 (pH; S3D1, 6.98±0.05; S3D2, 7.02±0.04; S3D5, 7.18±0.03) (FIG. 1B), and as a result of lower sodium bicarbonate levels in BLAR medium. The pH of the culture can range from about 6.8 to 7.2 during the five days of stage 3. FIG. 1C depicts representative phase-contrast images of a S3D5 monolayer (left), and human epithelial colon adenocarcinoma cell line (“Caco-2”) (right), which was used as a benchmark for characterization of differentiation. A uniform morphology at S3D5 was observed.

[4] = S3D5, compared to pancreas-biased S4D3 cells

For “BMP4: Bone morphogenic protein-4, 50 ng/ml with 1 μM retinoic acid in BLAR medium during Stage 3”, the ALB gene expression ([1]; S3D5) was “not observed”, the HOXA13 gene expression ([1]; S3D5) was “not induced” and the HOXC5 gene expression ([1]; S3D5) was “strongly induced”. For the same substance, the KLF5 gene expression ([1]; S3D5) was “upregulated”, the LGR5 gene expression ([1]; S3D5) was “not induced” and the SOX2 gene expression ([1]; S3D5) was “below levels seen in hESC and Caco-2 cells”. For the same substance, the SOX9 gene expression ([1]; S3D5, compared to Caco-2 cells) was “Strong induction”, the PDX1 gene expression [1, 4] was “induced at low levels” and the PTF1A gene expression [1, 4] was “not induced”. The CDX2 gene expression ([1]; during Stage 3) was “induced”, the FOXA2 gene expression ([1]; during Stage 3) was “maintained” and the “S3D5 cells exhibiting SOX2 and CDX2 co-presence” value [2] was 1.45±0.15%. For the same substance, the “percent of cells co-positive for both CDX2 and PDX1” value [2] was 69.4±14.2%, the “percent of cells co-present for both CDX2 and SOX9” value [2] was 98.7±0.25% and the “percent of S3D5 cells co-present for both CDX2 and FOXA2 protein” value ([2]; Stage 3 in BLAR medium with 1 μM retinoic acid and 50 ng/ml BMP) was 90.0±5.85%. The “percentage KI67-protein positive cells of total S3D5 cells” value ([2]; total cells >90% CDX2-positive) was 16.8±3.12% and the “S3D5 cells obtained from one hESC” value [3] was 4.56±2.60.
